Assay: solubility of carisbamate in water
Format: physicochemical
Settings: described as slightly soluble
Method: Carisbamate has been problematic to formulate in an aqueous suspension because it is slightly soluble in water, i.e., more than 2 mg/ml, so that temperature changes can cause the carisbamate particles to dissolve in the aqueous suspension medium and then re-crystallize out on the remaining carisbamate crystals and change the size of the resulting crystals or re crystallize in a different polymorphic form. This change in crystal size or polymorphic form, e.g., from Form A to Form B, can cause an undesirable change in bioavailability of the suspension. The present invention is based in part on the discovery that the addition of hypromellose (hydroxypropyl methyl cellulose or HPMC) in the proper concentration will prevent or stabilize this crystal growth and therefore serve to stabilize the suspension maintaining bioavailability and improving shelf life of the product.

NC(=O)OC[C@@H](O)c1ccccc1Cl [Carisbamate, S-(2-(2-chlorophenyl)-2-hydroxyethyl) oxocarboxamide]
solubility: > 2000 µg/mL
